Results reported in ChEMBL document CHEMBL1134892, “Novel inhibitors of plasminogen activator inhibitor-1: development of new templates from diketopiperazines” (Bioorg Med Chem Lett, 2002).

Each compound was assayed against Plasminogen activator inhibitor 1 (Homo sapiens, UniProt P05121) (assay: Inhibitory concentration required against Plasminogen activator inhibitor 1.).
Plasminogen activator inhibitor 1, sequence (P05121 whole entry): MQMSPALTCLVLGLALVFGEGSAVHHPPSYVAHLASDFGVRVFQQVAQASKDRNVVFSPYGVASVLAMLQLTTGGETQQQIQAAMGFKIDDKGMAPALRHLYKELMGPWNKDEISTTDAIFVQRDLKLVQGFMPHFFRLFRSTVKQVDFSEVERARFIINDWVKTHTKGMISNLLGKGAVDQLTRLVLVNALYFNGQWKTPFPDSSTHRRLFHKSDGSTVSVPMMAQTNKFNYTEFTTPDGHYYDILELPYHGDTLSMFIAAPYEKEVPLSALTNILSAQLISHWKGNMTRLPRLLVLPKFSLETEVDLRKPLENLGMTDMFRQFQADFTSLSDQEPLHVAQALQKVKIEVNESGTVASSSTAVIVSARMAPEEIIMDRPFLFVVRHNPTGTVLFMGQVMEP

Point of comparison: Oc1nc(-c2ccccc2)c(O)c2ccccc12, IC50 50 µM. Against it:
- O=C(Nc1ccc(/C=C2\NC(=O)c3ccccc3C2=O)cc1)c1cccs1 — 12-fold lower, 4 µM
- COc1cccc(-c2[nH]c(=O)c3ccccc3c2O)c1 — 5.1-fold lower, 9.8 µM
- Oc1nc(-c2ccc(Cl)cc2)c(O)c2ccccc12 — 2.1-fold lower, 23.6 µM
- O=c1[nH]/c(=C\c2nccs2)c(=O)[nH]/c1=C\c1ccc(OCCCc2cccnc2)cc1 — 83-fold lower, 0.6 µM
- O=C(Nc1cc(C(F)(F)F)cc(C(F)(F)F)c1)c1nc(O)c2ccccc2c1O — 3.6-fold lower, 13.7 µM
- O=C(Nc1ccc(/C=C2\NC(=O)c3ccccc3C2=O)cc1)c1ccccc1 — 5.8-fold lower, 8.6 µM
- O=C(Nc1ccc(Oc2ccc(OC(F)(F)F)cc2)cc1)c1[nH]c(=O)c2ccccc2c1O — 50-fold lower, 1 µM
- O=C(Nc1ccc(/C=C2\NC(=O)c3ccccc3C2=O)cc1)c1ccco1 — 26-fold lower, 1.9 µM
- O=C1N/C(=C\c2ccc(OCCCc3cccnc3)cc2)C(=O)c2ccccc21 — 2.8-fold lower, 18 µM
- O=c1[nH]/c(=C\c2ccc(OCCCc3cccnc3)cc2)c(=O)[nH]/c1=C\c1ccccc1 — 50-fold lower, 1 µM
- O=c1[nH]c(-c2ccc(F)cc2)c(O)c2ccccc12 — within 1.5-fold, 39.5 µM
- O=c1[nH]/c(=C\c2ccccn2)c(=O)[nH]/c1=C\c1ccc(OCCCc2cccnc2)cc1 — 170-fold lower, 0.3 µM
- O=c1[nH]/c(=C\c2ccc(OCCCc3cccnc3)cn2)c(=O)[nH]/c1=C\c1ccccc1 — higher, > 50 µM
- Cn1c(=O)/c(=C/c2ccc(OCCCc3cccnc3)cc2)[nH]c(=O)/c1=C/c1ccccc1 — 4.2-fold lower, 12 µM
- O=C(Nc1ccc(Cl)cc1)c1nc(O)c2ccccc2c1O — 2.1-fold lower, 24 µM
- O=C(Nc1ccc(Cl)c(Cl)c1)c1nc(O)c2ccccc2c1O — 3.6-fold lower, 14 µM
